Test system: pupillary light reflex of an individual
Assay: pupillary light reflex after inhalation of THC (pupillometry)
Type: in vivo
From the text: Following acquisition 131, primary data such as, for instance, pupillary dimensions and pupillary oscillations therefrom, can be determined for each of the plurality of video frames in the video sequence of the eye of the patient 132. […]
Pupillary oscillations and/or reactions to light, as described above, can reflect the activity of the autonomic nervous system. […] The pupillary light reflex can be evaluated via the method, and apparatus thereof, of the present disclosure, wherein higher frequency activation occurs with increased sympathetic tone and lower frequency activation occurs from increased parasympathetic tone. […]
According to an embodiment, a variety of pupillometric measures can be evaluated from pupillary data following initial video sequence processing 132 such that, in combination with secondary data 134 including frequency spectra, patient response profiles can be better characterized. […] As introduced above, the baseline pupil size can be found before the flash of light and the maximally constricted size can be determined after the flash of light. […]

CCCCCc1cc(O)c2c(c1)OC(C)(C)[C@@H]1CCC(C)=C[C@@H]21 [THC, Δ^9-tetrahydrocannabinol]
influence on pupillary light reflex (cannabis-tolerant individual, 30, 60, 90, 120 and 150 minutes after inhalation of THC, FIG. 4): inhibited to varying levels
influence on pupillary light reflex (individual, 30, 60, 120 and 180 minutes after inhalation of 24 mg of THC, FIG. 3): inhibited to varying levels

Source: patent US11986315B2, “Apparatus and method for the non-invasive detection of tetrahydrocannabinol use and impairment” (CHILDREN'S NATIONAL MEDICAL CENTER, priority 2018, dated 2024)
